Measurements taken from patent publication US11389497B2, “Pharmaceutical composition for treating cancer” (Institute of Advance Sciences, Inc., priority 2019, dated 2022).
Where two headings read alike, the source gives them in different places.

Columns and labels:
[1] = tested on: lysine acetyltransferase 7 (KAT 7); test: Immunoblot of nuclear fraction for histone acetyl transferases; assay type: cell-based, human; conditions: nuclear extract of ST88-14 cells, OSHP-1 50-300 ng/ml, 48 h
ST88-14 cells [2] = test: Real-time quantitative PCR of tumorigenic genes in ST88-14 cells; assay type: cell-based, human; conditions: 48 h, normalized by GAPDH
Experimental: Effect of OSHP-1 on the expression of tumorigenic genes. To ascertain whether OSHP-1 decreased the proliferation of ST 88-14 cells, by decreasing the expression of tumorigenic genes, total RNA was isolated from the ST88-14 cells as well as normal Human Schwann cells treated with varying concentrations of OSHP-1 (for 48 h) mentioned above. The RNA was reverse transcribed to cDNA and subjected to quantitative PCR using reverse and forward primers of FAX2, FOXN4, IGF2 TLXI genes (Lee et 2014), and was normalized by the expression of GAPDH (FIG. 5A).

ST88-14 cells [3] = test: Scratch assay in ST88-14 cells; assay type: cell-based, human
From the text: FIG. 7C illustrates a report on a scratch assay protocol performed using ST88-14 cells in the absence or presence of OSHP-1, AA, RA, CA, in accordance with an exemplary embodiment of the present disclosure.
(§1) Effect of OSHP-1 on anchorage independent growth or metastasis. To determine whether OSHP-1 and its individual components can block the anchorage independent growth of ST-8814 cells, and Normal Human Schwann by subjecting the cells to Soft Agar colony formation assays in the absence and presence of OSHP-1, AA, RA, CA and mixture of three, and the colonies were counted manual. […] Additionally, we also tested whether OSHP-1 and AA, RA, and CA affect the invasiveness of human metastatic melanoma.

ST88-14 cells [4] = test: Soft Agar colony formation assay (anchorage independent growth); assay type: cell-based, human; conditions: colonies counted manually
From the text: FIG. 7A illustrates a report on effect of OSHP-1 on anchorage independent growth or metastasis, in accordance with an exemplary embodiment of the present disclosure: To determine whether OSHP-1 and its individual components can block the anchorage independent growth of ST88-14 cells, and Normal Human Schwann Cells, by subjecting the cells to Soft Agar colony formation assays the absence and presence of (A) OSHP-1.
FIG. 7B illustrates a report on AA, RA, CA and mixture of three, and the colonies were counted manually, in accordance with an exemplary embodiment of the present disclosure.
as §1

[5] = tested on: human metastatic melanoma; test: Scratch assay in human metastatic melanoma; assay type: cell-based
HDAC2 = test: Immunoblot of nuclear fraction for NuRD components; assay type: cell-based, human; conditions: nuclear extract of ST88-14 cells, OSHP-1 50-300 ng/ml, 48 h
From the text: CBP, KAT2A, KAT7 acetyl transferases and CHD4, MTA2, MBD2/3, HDAC2, GATA 2 (NuRD) components and b-actin antibodies.

ST88-14 cells [6] = test: MTS cell viability / proliferation assay; assay type: cell-based, human; conditions: OSHP-1 50-300 ng/ml, 0-72 h
Experimental: FIG. 4 illustrates a report on cell Viability Assays using the MTS Assay Kit (Colorimetric) (ab 197010) Cell proliferation, in accordance with an exemplary embodiment of the present disclosure. As shown, viability and cytotoxicity was assessed on cells. Cells were treated with the appropriate concentrations of OSHP-1 for 24, 48 and 72 h.
Effect of OSHP-1 on Cell proliferation: We performed MTS assays using cells and treated with increasing concentrations of OSHP-1 (50-300 ng/ml) for 0-72 h.

| Compound | lysine acetyl transferase KAT 7 activity / levels [1] | FAX2 (PAX2) expression (ST88-14 cells [2]) | FOXN4 expression (ST88-14 cells [2]) | IGF2 expression (ST88-14 cells [2]) | invasion and metastasis in scratch assay (ST88-14 cells [3]) | invasion and metastasis in scratch assay (ST88-14 cells [3]; listed as RA) | TLXI (TLX2) expression (ST88-14 cells [2]) | anchorage independent growth (ST88-14 cells [4]) | migration of cells in scratch assay [5] | HDAC2 activity / levels (HDAC2) | viability and proliferation of ST88-14 cells (ST88-14 cells [6]) |
| --- | --- | --- | --- | --- | --- | --- | --- | --- | --- | --- | --- |
| caffeoylquinic acid | decreases | down-regulated | down-regulated | down-regulated | – | – | – | – | – | – | – |
| O=C(/C=C/c1ccc(O)c(O)c1)O[C@H](Cc1ccc(O)c(O)c1)C(=O)O [rosmarinic acid] | – | down-regulated | – | down-regulated | decreased metastasis | responsible for the blocking of anchorage independent growth, invasion and metastasis of MPNSTs | down-regulated | responsible for the blocking of anchorage independent growth | the one contributing to this property | – | – |
| O=C1O[C@H]([C@@H](O)CO)C(O)=C1O [ascorbic acid] | decreased | down-regulated | – | down-regulated | – | – | down-regulated | – | – | increased | – |
| CN1c2c(nc(N)[nH]c2=O)NCC1CNc1ccc(C(=O)N[C@@H](CCC(=O)O)C(=O)O)cc1 (some centres unmarked) [MTHF, 5-methyl tetra hydro folate] | – | – | – | – | – | – | – | – | – | – | increases the cell proliferation |
